Test results from patent US8158580B2, “Pharmaceutical compositions containing a glycopeptide antibiotic and a cyclodextrin” (Theravance, Inc., priority 2000, dated 2012).
Where two headings read alike, the source gives them in different places.

Settings: female rats; for BUN / Creatinine: 50 mg/kg intravenous infusion, serum at 24 hours; for % Recovered (as unchanged parent) Kidney / % Recovered (as unchanged parent) Liver / % Recovered (as unchanged parent) Urine / Serum Conc.: 2-minute intravenous infusion, 24 hours, Mean (SD)
Procedure: Female Sprague-Dawley rates (three per group) were dosed with Compound A (50 mg/kg) formulated in either hydroxypropyl-β-cyclodextrin or 5% dextrose/water or vehicle. The indicated doses were administered in a volume of 10 mL/kg via a 2-minute intravenous infusion. At 24 hours, the animals were sacrificed and serum and tissue samples collected.

[1] = formulation 1% (w/v) CD (hydroxypropyl-β-cyclodextrin)
[2] = formulation 1% CD (hydroxypropyl-β-cyclodextrin), 50 mg/kg
[3] = formulation 5% (w/v) CD (hydroxypropyl-β-cyclodextrin)
[4] = formulation 5% CD (hydroxypropyl-β-cyclodextrin), 50 mg/kg
[5] = formulation 25% (w/v) CD (hydroxypropyl-β-cyclodextrin)
[6] = formulation 25% CD (hydroxypropyl-β-cyclodextrin), 50 mg/kg
[7] = formulation D5W (aqueous 5% dextrose solution, no cyclodextrin)
[8] = formulation D5W (aqueous 5% dextrose solution, no cyclodextrin), 50 mg/kg
[9] = formulations containing a cyclodextrin compared with formulation without, 50 mg/kg

CCCCCCCCCCNCCNC1(C)CC(OC2C(Oc3c4cc5cc3Oc3ccc(cc3Cl)C(O)C3NC(=O)C(NC(=O)C5NC(=O)C(CC(N)=O)NC(=O)C(NC(=O)C(CC(C)C)NC)C(O)c5ccc(c(Cl)c5)O4)c4ccc(O)c(c4)-c4c(cc(O)c(CNCP(=O)(O)O)c4O)C(C(=O)O)NC3=O)OC(CO)C(O)C2O)OC(C)C1O (centres unmarked) [Compound A]
BUN [1]: 26 ± 5 mg/dL | Creatinine [1]: 0.34 ± 0.08 mg/dL | % Recovered (as unchanged parent) Kidney [2]: 5.68 (2.49) % | % Recovered (as unchanged parent) Liver [2]: 8.47 (0.46) % | % Recovered (as unchanged parent) Urine [2]: 17.45 (6.92) % | Serum Conc. [2]: 17.1 (12.1) μg/mL | BUN [3]: 18 ± 5 mg/dL | Creatinine [3]: 0.31 ± 0.07 mg/dL | % Recovered (as unchanged parent) Kidney [4]: 2.08 (0.43) % | % Recovered (as unchanged parent) Liver [4]: 4.89 (0.81) % | % Recovered (as unchanged parent) Urine [4]: 40.51 (18.57) % | Serum Conc. [4]: 1.66 (0.33) μg/mL | BUN [5]: 13 ± 2 mg/dL | Creatinine [5]: 0.26 ± 0.02 mg/dL | % Recovered (as unchanged parent) Kidney [6]: 0.62 (0.12) % | % Recovered (as unchanged parent) Liver [6]: 1.90 (0.32) % | % Recovered (as unchanged parent) Urine [6]: 90.91 (8.39) % | Serum Conc. [6]: 0.86 (0.19) μg/mL | BUN [7]: 67 ± 2 mg/dL | Creatinine [7]: 0.72 ± 0.08 mg/dL | % Recovered (as unchanged parent) Kidney [8]: 17.82 (4.94) % | % Recovered (as unchanged parent) Liver [8]: 14.19 (3.41) % | % Recovered (as unchanged parent) Urine [8]: 12.61 (4.60) % | Serum Conc. [8]: 59.8 (27.1) μg/mL | liver and kidney accumulation [9]: significantly lower | urinary recovery [9]: significantly higher
